Experimental data published in patent publication US8063088B2 (Hoffmann-La Roche Inc., priority 2008, dated 2011).

Columns and labels:
human LXR beta = target: T1, human LXR beta (Homo sapiens, UniProt P55055); test: Radioligand binding assay (SPA), LXR beta LBD; conditions: radioligand displacement, LXR beta-LBD on SPA beads; read-out: LXRbeta Binding IC50
T1 construct: human LXR beta (aa 155 to 460); unspecified tag ('tagged versions'); made in house; host or cells: E. coli BL21 (pLysS)
T1 sequence (P55055 155-460): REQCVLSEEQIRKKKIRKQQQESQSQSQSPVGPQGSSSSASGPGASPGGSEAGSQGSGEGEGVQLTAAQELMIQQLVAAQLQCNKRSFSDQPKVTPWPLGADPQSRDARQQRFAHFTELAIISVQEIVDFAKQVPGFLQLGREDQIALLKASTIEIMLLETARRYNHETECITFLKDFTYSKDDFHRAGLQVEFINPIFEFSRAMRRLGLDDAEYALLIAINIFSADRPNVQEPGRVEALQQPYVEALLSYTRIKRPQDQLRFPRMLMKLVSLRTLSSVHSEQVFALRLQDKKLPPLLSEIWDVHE
Protocol: (§1) The following tests were carried out in order to determine the activity of the compounds of the present invention. Background information on the performed assays can be found in: Nichols J S et al. “Development of a scintillation proximity assay for peroxisome proliferator-activated receptor gamma ligand binding domain”, Anal Biochem. 1998, 257: 112-119.
(§2) Mammalian expression vectors were constructed to express full-length human LXR alpha and LXR beta. Bacterial expression vectors were constructed to produce tagged versions of the ligand binding domains (LBD) of human LXR alpha (aa 164 to 447) and human LXR beta (aa 155 to 460). To accomplish this, the portions of the sequences encoding the LBDs were amplified from the full-length clones by PCR and then subcloned into the plasmid vectors. Final clones were verified by DNA sequence analysis (Willy et al., Genes Dev. 1995, 9:1033-45; Song et al., Proc Natl Acad Sci USA. 1994, 91:10809-13).
(§3) Induction, expression, and purification of LBD proteins were performed in E. coli strain BL21 (pLysS) cells by standard methods (Ref: Current Protocols in Molecular Biology, Wiley Press, edited by Ausubel et al).
(§4) Radioligand Binding Assay
(§5) LXR alpha and LXR beta receptor binding were assayed in buffer consisting of 50 mM HEPES, pH 7.4, 10 mM NaCl, 5 mM MgCl2. For each 96-well reaction, 500 ng of LXRα-LBD or 700 ng of LXR beta-LBD proteins were bound to 80 μg or 40 μg SPA beads respectively, in a final volume of 50 μl by shaking. The resulting slurry was incubated for 1 h at RT and centrifuged for 2 min at 1300×g. The supernatant containing unbound protein was removed, and the semi-dry pellet containing the receptor-coated beads was re-suspended in 50 μl of buffer. Radioligand (eg. 100,000 dpm of (N-(2,2,2-trifluoroethyl)-N-[4-(2,2,2-trifluoro-1-hydroxy-1-trifluoromethylethyl)-phenyl]-benzenesulfonamide)) was added, and the reaction incubated at RT for 1 h in the presence of test compounds, and then scintillation proximity counting was performed. All binding assays were performed in 96-well plates and the amount of bound ligand was measured on a Packard TopCount using OptiPlates (Packard). Dose response curves were measured within a range of concentration from 10^−10 M to 10^−4 M.

human LXR alpha = target: T2, human LXR alpha (Homo sapiens, UniProt Q13133); test: Radioligand binding assay (SPA), LXR alpha LBD; conditions: radioligand displacement, LXRα-LBD on SPA beads; read-out: LXRalpha Binding IC50
T2 construct: human LXR alpha (aa 164 to 447); unspecified tag ('tagged versions'); made in house; host or cells: E. coli BL21 (pLysS)
T2 sequence (Q13133 164-447): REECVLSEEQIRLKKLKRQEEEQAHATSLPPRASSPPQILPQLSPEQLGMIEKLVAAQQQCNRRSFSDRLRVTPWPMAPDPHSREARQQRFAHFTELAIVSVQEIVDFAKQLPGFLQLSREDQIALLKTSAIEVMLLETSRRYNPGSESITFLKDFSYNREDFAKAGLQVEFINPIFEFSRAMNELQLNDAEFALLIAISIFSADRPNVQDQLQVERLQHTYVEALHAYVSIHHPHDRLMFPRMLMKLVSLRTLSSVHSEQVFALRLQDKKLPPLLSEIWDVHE
Protocol: as §1, §2, §3, §4, §5

Structure (SMILES) | IC50 (human LXR beta) [µM] | IC50 (human LXR alpha) [µM]
O=C(O)c1cccc(-c2ccc(C3CN(S(=O)(=O)c4ccccc4)C(=O)N3c3ccccc3)cc2)c1 (stereo not drawn) [Example 2, 4′-(1-Benzenesulfonyl-2-oxo-3-phenyl-imidazolidin-4-yl)-biphenyl-3-carboxylic acid] | 8.05 | 7.97
O=C(O)c1cccc(-c2cccc(C3CN(S(=O)(=O)c4ccccc4)C(=O)N3c3ccccc3)c2)c1 (stereo not drawn) [Example 6, 3′-(1-Benzenesulfonyl-2-oxo-3-phenyl-imidazolidin-4-yl)-biphenyl-3-carboxylic acid] | 9.03 | 5.72
O=C(O)CCc1ccc(-c2cccc(C3CN(S(=O)(=O)c4ccccc4)C(=O)N3c3ccccc3)c2)cc1 (stereo not drawn) [Example 10, 3-[3′-(1-Benzenesulfonyl-2-oxo-3-phenyl-imidazolidin-4-yl)-biphenyl-4-yl]-propionic acid] | 2.69 | 3.35
CC(C)N1C(=O)N(S(=O)(=O)c2ccccc2)CC1c1cccc(-c2cccc(S(C)(=O)=O)c2)c1 (stereo not drawn) [Example 12, 1-Benzenesulfonyl-3-isopropyl-4-(3′-methanesulfonyl-biphenyl-3-yl)-imidazolidin-2-one] | 0.0243 | 0.147
CC(C)N1C(=O)N(S(=O)(=O)C(C)C)CC1c1cccc(-c2cccc(S(C)(=O)=O)c2)c1 (stereo not drawn) [Example 13, 3-Isopropyl-4-(3′-methanesulfonyl-biphenyl-3-yl)-1-(propane-2-sulfonyl)-imidazolidin-2-one] | 0.036 | 2.49
CC(C)N1C(=O)N(S(=O)(=O)c2ccccc2F)CC1c1cccc(-c2cccc(S(C)(=O)=O)c2)c1 (stereo not drawn) [Example 14, 1-(2-Fluoro-benzenesulfonyl)-3-isopropyl-4-(3′-methanesulfonyl-biphenyl-3-yl)-imidazolidin-2-one] | 0.006 | 0.01
Cc1oncc1S(=O)(=O)N1CC(c2cccc(-c3cccc(S(C)(=O)=O)c3)c2)N(C(C)C)C1=O (stereo not drawn) [Example 15, 3-Isopropyl-4-(3′-methanesulfonyl-biphenyl-3-yl)-1-(5-methyl-isoxazole-4-sulfonyl)-imidazolidin-2-one] | 0.16 | 2.58
CS(=O)(=O)c1cc(-c2cccc(C3CN(S(=O)(=O)c4ccccc4)C(=O)N3c3ccccc3)c2)ccc1CO (stereo not drawn) [Example 16, 1-Benzenesulfonyl-4-(4′-hydroxymethyl-3′-methanesulfonyl-biphenyl-3-yl)-3-phenyl-imidazolidin-2-one] | 0.029 | 0.475
CS(=O)(=O)c1cc(-c2ccc(C3CN(S(=O)(=O)c4ccccc4)C(=O)N3c3ccccc3)cc2)ccc1CO (stereo not drawn) [Example 19, 1-Benzenesulfonyl-4-(4′-hydroxymethyl-3′-methanesulfonyl-biphenyl-4-yl)-3-phenyl-imidazolidin-2-one] | 0.018 | 0.045
CC(C)N1C(=O)N(S(=O)(=O)c2ccccc2)CC1c1cccc(-c2ccc(CO)c(S(C)(=O)=O)c2)c1 (stereo not drawn) [Example 20, 1-Benzenesulfonyl-4-(4′-hydroxymethyl-3′-methanesulfonyl-biphenyl-3-yl)-3-isopropyl-imidazolidin-2-one] | 0.001 | 0.006
Cc1ccc(F)cc1-c1cccc(C2CN(S(=O)(=O)c3ccccc3)C(=O)N2C(C)C)c1 (stereo not drawn) [Example 22, 1-Benzenesulfonyl-4-(5′-fluoro-2′-methyl-biphenyl-3-yl)-3-isopropyl-imidazolidin-2-one] | 1.36 | 4.71
CC(C)N1C(=O)N(S(=O)(=O)c2ccccc2)CC1c1cccc(-c2cncc(S(C)(=O)=O)c2)c1 (stereo not drawn) [Example 23, 1-Benzenesulfonyl-3-isopropyl-4-[3-(5-methanesulfonyl-pyridin-3-yl)-phenyl]-imidazolidin-2-one] | 0.025 | 2.79
CC(C)N1C(=O)N(S(=O)(=O)c2ccccc2)CC1c1cccc(-c2cccc(S(N)(=O)=O)c2)c1 (stereo not drawn) [Example 24, 3′-(1-Benzenesulfonyl-3-isopropyl-2-oxo-imidazolidin-4-yl)-biphenyl-3-sulfonic acid amide] | 0.001 | 0.048
CC(C)N1C(=O)N(S(=O)(=O)c2ccccc2)CC1c1cccc(-c2cc(F)ccc2Cl)c1 (stereo not drawn) [Example 25, 1-Benzenesulfonyl-4-(2′-coro-5′-fluoro-biphenyl-3-yl)-3-isopropyl-imidazolidin-2-one] | 0.265 | 2.03

Further lines, results first:

IC50 (human LXR beta) [µM] | IC50 (human LXR alpha) [µM] | Structure (SMILES)
5.25 | 10.2 | Cc1ccc(C)c(-c2ccc(C3CN(S(=O)(=O)c4ccccc4)C(=O)N3c3ccccc3)cc2)c1 (stereo not drawn) [Example 3, 1-Benzenesulfonyl-4-(2′,5′-dimethyl-biphenyl-4-yl)-3-phenyl-imidazolidin-2-one]
0.28 | 1.68 | CS(=O)(=O)c1cccc(-c2ccc(C3CN(S(=O)(=O)c4ccccc4)C(=O)N3c3ccccc3)cc2)c1 (stereo not drawn) [Example 4, 1-Benzenesulfonyl-4-(3′-methanesulfonyl-biphenyl-4-yl)-3-phenyl-imidazolidin-2-one]
5.42 | 4.14 | O=C(O)c1ccc(-c2cccc(C3CN(S(=O)(=O)c4ccccc4)C(=O)N3c3ccccc3)c2)cc1 (stereo not drawn) [Example 5, 3′-(1-Benzenesulfonyl-2-oxo-3-phenyl-imidazolidin-4-yl)-biphenyl-4-carboxylic acid]
0.004 | 0.09 | CS(=O)(=O)c1cccc(-c2cccc(C3CN(S(=O)(=O)c4ccccc4)C(=O)N3c3ccccc3)c2)c1 (stereo not drawn) [Example 7, 1-Benzenesulfonyl-4-(3′-methanesulfonyl-biphenyl-3-yl)-3-phenyl-imidazolidin-2-one]
0.0745 | 0.335 | CS(=O)(=O)Nc1cccc(-c2cccc(C3CN(S(=O)(=O)c4ccccc4)C(=O)N3c3ccccc3)c2)c1 (stereo not drawn) [Example 8, N-[3′-(1-Benzenesulfonyl-2-oxo-3-phenyl-imidazolidin-4-yl)-biphenyl-3-yl]-methanesulfonamide]
0.36 | 0.425 | CS(=O)(=O)Nc1cccc(-c2ccc(C3CN(S(=O)(=O)c4ccccc4)C(=O)N3c3ccccc3)cc2)c1 (stereo not drawn) [Example 9, N-[4′-(1-Benzenesulfonyl-2-oxo-3-phenyl-imidazolidin-4-yl)-biphenyl-3-yl]-methanesulfonamide]
46.1 | 13 | O=C(O)c1ccccc1-c1cccc(C2CN(S(=O)(=O)c3ccccc3)C(=O)N2c2ccccc2)c1 (stereo not drawn) [Example 11, 3′-(1-Benzenesulfonyl-2-oxo-3-phenyl-imidazolidin-4-yl)-biphenyl-2-carboxylic acid]
2.73 | 52.8 | CC(C)N1C(=O)N(S(C)(=O)=O)CC1c1cccc(-c2cccc(S(C)(=O)=O)c2)c1 (stereo not drawn) [Example 17, 3-Isopropyl-1-methanesulfonyl-4-(3′-methanesulfonyl-biphenyl-3-yl)-imidazolidin-2-one]
0.106 | 5.01 | CCS(=O)(=O)N1CC(c2cccc(-c3cccc(S(C)(=O)=O)c3)c2)N(C(C)C)C1=O (stereo not drawn) [Example 18, 1-Ethanesulfonyl-3-isopropyl-4-(3′-methanesulfonyl-biphenyl-3-yl)-imidazolidin-2-one]
0.155 | 2.91 | CC(C)N1C(=O)N(S(=O)(=O)c2ccccc2)CC1c1cccc(-c2cccc([N+](=O)[O-])c2)c1 (stereo not drawn) [Example 21, 1-Benzenesulfonyl-3-isopropyl-4-(3′-nitro-biphenyl-3-yl)-imidazolidin-2-one]
